Experimental data: PMC7504360 (International Journal of Molecular Sciences, 2020)
Square brackets hold non-standard residues; d marks the D form. Peptide text beside a SMILES is read from it.

System: LPS-stimulated RAW264.7 cells
Experiment: TNF-α release, ELISA
Type: cell-based, mouse
Conditions: 25 μM, 1 h pretreatment, LPS 20 ng/mL for 16 h
Procedure: The presence of nitrite in culture media strongly validates the indication of NO production which was assessed by Griess assay. Briefly, RAW264.7 cell (1 × 10^5) were seeded in s 96-well plate in triplicate. Peptides (1, 5, 25, and 50 μM) were pretreated 1 h and then stimulated with 20 ng/mL of LPS purified from E. coli O111:B4 (Sigma-Aldrich, St. Louis, MO, USA) for 16 h. After incubation, equal volumes of culture media and Griess reagent were added and color change was read at 540 nm. The concentration of nitrite content was assessed using a standard curve of sodium nitrite. In addition, release of inflammatory cytokines including TNF-α and IL-6 in the culture media was quantified using an enzyme-linked immunosorbent assays kit (ELISA; R&D Systems, Minneapolis, MN, USA) and the assay was performed according to the kit protocol. The assay was conducted in triplicate, and the concentrations of TNF-α and IL-6 were evaluated by measuring the absorbance at 450 nm using a microplate reader.

Q: `CC[C@@H](C)[C@@H](NC(=O)[C@@H](C)NC(=O)[C@@H](CC(C)C)NC(=O)[C@@H](Cc1c[nH]c2ccccc12)NC(=O)[C@@H](CC(C)C)NC(=O)[C@@H](CCCNC(=N)N)NC(=O)[C@H](N)CCCNC(=N)N)C(=O)N[C@H](Cc1c[nH]c2ccccc12)C(=O)N[C@H](CCCNC(=N)N)C(=O)N[C@H](CCCNC(=N)N)C(N)=O` [Pro10-1D] (H-[dR][dR][dL][dW][dL][dA][dI][dW][dR][dR]-NH2; N-terminus assumed) was tested. Which “inhibition of LPS-induced TNF-α level” value did it give?
A: The value was “effective inhibition”.
